Measurements: article PMC3177007 (Cancer gene therapy, 2011)

Experiments:
MDA-MB-435 cells = experiment: Cellular uptake of Cy3 labeled-siRNA nanoplexes, confocal microscopy; assay type: cell-based, human; conditions: cells incubated 4 h with nanoplexes
Zeta potential = assay type: physicochemical; conditions: nanoplexes at selected ratios: H3K(+H)4b:siRNA 2.2:1; (RGD-PEG)-H3K(+H)4b/H2K4b/siRNA 3:0.8:1; (RGD-PEG)^4-H3K(+H)4b/H2K4b/siRNA 4:0.8:1
[1] = Particle size by dynamic light scattering; assay type: physicochemical; conditions: DLS; H3K(+H)4b:siRNA 2.2:1 (w/w)
siRNA = experiment: Gel retardation assay of HK:siRNA nanoplexes; assay type: binding; conditions: H2K4b:siRNA ratio 0.8 to 1 (w:w); data not shown
[2] = H2K4b alone; ref [18]; cited from earlier work

Sequence | intracellular fluorescence pattern of Cy3 labeled-siRNA (MDA-MB-435 cells) | zeta potential (Zeta potential) [mV] | size of the siRNA nanoplex [1] [nm] | siRNA retained in gel retardation assay (siRNA) [%] | effectiveness as carrier of siRNA in silencing its targets [2]
KHHHKHHHKHHHHKHHHK [H3K(+H)4b] | discrete intracellular particles | 37 | 149 ± 41 | – | –
KHKHHKHHKHHKHHKHHKHK [H2K4b] | – | – | – | 35 | not an effective carrier
